# Target: T1, GST-RIPK1 (recombinant GST-RIPK1 kinase domain (residues 1-327)) (Homo sapiens, UniProt Q13546)
# T1 construct: recombinant GST-RIPK1 kinase domain (residues 1-327) enzyme produced from baculovirus-transfected Sf21 cells; host or cells: baculovirus-transfected Sf21 insect cells
# T1 sequence (Q13546 1-327): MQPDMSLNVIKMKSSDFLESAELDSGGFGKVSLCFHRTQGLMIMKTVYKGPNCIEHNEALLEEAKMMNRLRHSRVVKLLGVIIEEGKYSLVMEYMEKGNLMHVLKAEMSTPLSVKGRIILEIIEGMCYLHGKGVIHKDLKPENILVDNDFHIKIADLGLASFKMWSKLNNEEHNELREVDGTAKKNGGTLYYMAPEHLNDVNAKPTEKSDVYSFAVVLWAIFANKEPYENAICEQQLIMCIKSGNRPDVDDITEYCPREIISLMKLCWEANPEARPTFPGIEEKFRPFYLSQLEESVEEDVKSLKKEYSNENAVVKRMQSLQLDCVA
# Test: RIPK1-ADP-Glo Enzymatic Assay
# Type: biochemical
# Details: ten-point titration, top compound concentration of 100000 nM; 25 nM GST-RIPK1, 300 μM ATP, 3 μM dephosphorylated-MBP; 30 min pre-incubation, 150 min reaction
# Method in brief: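 GST-RIPK1 kinase domain (residues 1-327, Sf21-expressed), 25 nM, preincubated 30 min with compound, then reacted 150 min with 300 μM ATP and 3 μM dephosphorylated MBP in pH 7.3 Hepes buffer, 1% DMSO. ADP measured by ADP-Glo luminescence; EC50 from ten-point titration (top 100000 nM), four-parameter fit.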
row,EC50 [nM],Compound
1,721,"N#CC1(c2ccc(COC3CC4(C3)OC3CC[C@@H](c5cnccn5)N3C4=O)cn2)CCC1 (stereo partly drawn) [Example 18.78, 1-[5-({[(5′S)-3′-oxo-5′-(pyrazin-2-yl)tetrahydro-3′H-spiro[cyclobutane-1,2′-pyrrolo[2,1-b][1,3]oxazol]-3-yl]oxy}methyl)pyridin-2-yl]cyclobutane-1-carbonitrile]"
2,126,"O=C1N2C(CC[C@H]2c2cnccn2)OC12CC(OCc1cncc(OCCF)c1)C2 (stereo partly drawn) [Example 18.27, (5′S)-3-{[5-(2-fluoroethoxy)pyridin-3-yl]methoxy}-5′-(pyrazin-2-yl)tetrahydro-3′H-spiro[cyclobutane-1,2′-pyrrolo[2,1-b][1,3]oxazol]-3′-one]"
3,174,"O=C1N2C(CC[C@H]2c2cnccn2)OC12CC(OCc1cncc(OCCF)c1)C2 (stereo partly drawn) [Example 18.77, (5′S)-3-{[5-(2-fluoroethoxy)pyridin-3-yl]methoxy}-5′-(pyrazin-2-yl)tetrahydro-3′H-spiro[cyclobutane-1,2′-pyrrolo[2,1-b][1,3]oxazol]-3′-one]"
4,110,"O=C1N2C(CC[C@H]2c2cnccn2)OC12CC(OCc1cnc3c(c1)CCCC3)C2 (stereo partly drawn) [Example 18.42, (5′S)-5′-(pyrazin-2-yl)-3-[(5,6,7,8-tetrahydroquinolin-3-yl)methoxy]tetrahydro-3′H-spiro[cyclobutane-1,2′-pyrrolo[2,1-b][1,3]oxazol]-3′-one]"
5,289,"O=C1N2C(CC[C@H]2c2cnccn2)OC12CC(OCc1ccc3nc(C(F)(F)F)sc3c1)C2 (stereo partly drawn) [Example 18.97, (5′S)-5′-(pyrazin-2-yl)-3-{[2-(trifluoromethyl)-1,3-benzothiazol-6-yl]methoxy}tetrahydro-3′H-spiro[cyclobutane-1,2′-pyrrolo[2,1-b][1,3]oxazol]-3′-one]"
6,79,"O=C1N2C(CC[C@H]2c2cnccn2)OC12CC(OCc1ccc3cnccc3c1)C2 (stereo partly drawn) [Example 18.85, (5′S)-3-[(isoquinolin-6-yl)methoxy]-5′-(pyrazin-2-yl)tetrahydro-3′H-spiro[cyclobutane-1,2′-pyrrolo[2,1-b][1,3]oxazol]-3′-one]"
7,43,"O=C1N2C(CC[C@H]2c2cnccn2)OC12CC(OCc1csc3ncccc13)C2 (stereo partly drawn) [Example 18.68, (5′S)-5′-(pyrazin-2-yl)-3-[(thieno[2,3-b]pyridin-3-yl)methoxy]tetrahydro-3′H-spiro[cyclobutane-1,2′-pyrrolo[2,1-b][1,3]oxazol]-3′-one]"
8,33,"N#Cc1cc(F)cc(OC2CC3(C2)O[C@@H]2CC[C@@H](c4cnccn4)N2C3=O)c1 (stereo partly drawn) [Example 19.4, 3-fluoro-5-{[(5′S,7a′R)-3′-oxo-5′-(pyrazin-2-yl)tetrahydro-3′H-spiro[cyclobutane-1,2′-pyrrolo[2,1-b][1,3]oxazol]-3-yl]oxy}benzonitrile]"
9,146,"O=C1N2[C@@H](CC[C@H]2c2cnccn2)OC12CC(OCc1cccs1)C2 (stereo partly drawn) [Example 22.4, (5′S,7a′R)-5′-(pyrazin-2-yl)-3-(thiophen-2-ylmethoxy)tetrahydro-3′H-spiro[cyclobutane-1,2′-pyrrolo[2,1-b]oxazol]-3′-one]"
10,780,"O=C1N2C(CC[C@H]2c2cnccn2)OC12CC(OCc1cnc3c(c1)CCCC3)C2 (stereo partly drawn) [Example 18.90, (5′S)-5′-(pyrazin-2-yl)-3-[(5,6,7,8-tetrahydroquinolin-3-yl)methoxy]tetrahydro-3′H-spiro[cyclobutane-1,2′-pyrrolo[2,1-b][1,3]oxazol]-3′-one]"
11,86,"O=C1N2[C@@H](CC[C@H]2c2cnccn2)OC12CC(OCc1ccc3scnc3c1)C2 (stereo partly drawn) [Example 20.7, (5′S,7a′R)-3-[(1,3-benzothiazol-5-yl)methoxy]-5′-(pyrazin-2-yl)tetrahydro-3′H-spiro[cyclobutane-1,2′-pyrrolo[2,1-b][1,3]oxazol]-3′-one]"

# The next lines start with the compound.
row,Compound,EC50 [nM]
1,"O=C1N2[C@@H](CC[C@H]2c2cc(F)cc(F)c2)OC12CC(Oc1ccnc3c(F)cnn13)C2 (single isomer, unassigned) [Example 9.5]",328
2,"O=C1N2[C@@H](CC[C@H]2c2cncc(F)c2)OC12CCC(Oc1ccccc1)CC2 (single isomer, unassigned) [Example 16.3, (1r or s),(5′S,7a′R)-5′-(5-fluoropyridin-3-yl)-4-phenoxytetrahydro-3′H-spiro[cyclohexane-1,2′-pyrrolo[2,1-b]oxazol]-3′-one]",62
3,"O=C1N2[C@@H](CC[C@H]2c2cnccn2)O[C@]12C[C@H](Oc1ncnn3cccc13)C2 [Example 9.46, (1r,3R,5′S,7a′R)-5′-(pyrazin-2-yl)-3-(pyrrolo[2,1-f][1,2,4]triazin-4-yloxy)tetrahydro-3′H-spiro[cyclobutane-1,2′-pyrrolo[2,1-b]oxazol]-3′-one]",15
4,"O=C1N2[C@@H](CC[C@H]2c2cc(F)cc(F)c2)O[C@]12C[C@H](Oc1cc(-c3nn[nH]n3)ccn1)C2 [Example 10.3, (1r,3R,5′S,7a′R)-3-((4-(2H-tetrazol-5-yl)pyridin-2-yl)oxy)-5′-(3,5-difluorophenyl)tetrahydro-3′H-spiro[cyclobutane-1,2′-pyrrolo[2,1-b]oxazol]-3′-one]",11
5,"O=C1N2[C@@H](CC[C@H]2c2cc(F)cc(F)c2)O[C@]12C[C@H](Oc1ncnn3cccc13)C2 [Example 9.22, (1r,3R,5′S,7a′R)-5′-(3,5-difluorophenyl)-3-[(pyrrolo[2,1-f][1,2,4]triazin-4-yl)oxy]tetrahydro-3′H-spiro[cyclobutane-1,2′-pyrrolo[2,1-b][1,3]oxazol]-3′-one]",11
6,"O=C1N2[C@@H](CC[C@H]2c2ccccc2)OC12CC(Oc1ccnc(C(F)(F)F)c1)C2 (stereo partly drawn) [Example 8.4, (5′S,7a′R)-5′-phenyl-3-{[2-(trifluoromethyl)pyridin-4-yl]oxy}tetrahydro-3′H-spiro[cyclobutane-1,2′-pyrrolo[2,1-b][1,3]oxazol]-3′-one]",86
7,"Cc1cc2c(O[C@H]3C[C@@]4(C3)O[C@@H]3CC[C@@H](c5cc(F)cc(F)c5)N3C4=O)ncnc2o1 [Example 9.32, (1r,3R,5′S,7a′R)-5′-(3,5-difluorophenyl)-3-[(6-methylfuro[2,3-d]pyrimidin-4-yl)oxy]tetrahydro-3′H-spiro[cyclobutane-1,2′-pyrrolo[2,1-b][1,3]oxazol]-3′-one]",8
8,"Cc1cc(OC2CC3(C2)O[C@@H]2CC[C@@H](c4ccccc4)N2C3=O)ccc1F (stereo partly drawn) [Example 8.13, (5′S,7a′R)-3-(4-fluoro-3-methylphenoxy)-5′-phenyltetrahydro-3′H-spiro[cyclobutane-1,2′-pyrrolo[2,1-b][1,3]oxazol]-3′-one]",62
9,"NC(=O)c1ccnc(O[C@H]2C[C@@]3(C2)O[C@@H]2CC[C@@H](c4ccc(F)cc4)N2C3=O)c1 [Example 10.6, 2-(((1r,3R,5′S,7a′R)-5′-(4-fluorophenyl)-3′-oxotetrahydro-3′H-spiro[cyclobutane-1,2′-pyrrolo[2,1-b]oxazol]-3-yl)oxy)isonicotinamide]",52
10,"O=C1N2[C@@H](CC[C@H]2c2cc(F)cc(F)c2)O[C@]12C[C@H](Oc1cc(Cl)ncn1)C2 [Example 9.3, (5′S,7a′R)-3-((6-chloropyrimidin-4-yl)oxy)-5′-(3,5-difluorophenyl)tetrahydro-3′H-spiro[cyclobutane-1,2′-pyrrolo[2,1-b]oxazol]-3′-one]",10
11,"N#Cc1cc(F)cc([C@@H]2CC[C@H]3O[C@]4(C[C@H](Oc5cc(C#N)ncn5)C4)C(=O)N32)c1 [Example 9.44, 6-(((5′S,7a′R)-5′-(3-cyano-5-fluorophenyl)-3′-oxotetrahydro-3′H-spiro[cyclobutane-1,2′-pyrrolo[2,1-b]oxazol]-3-yl)oxy)pyrimidine-4-carbonitrile]",28
12,"N#Cc1ccc(OC2CC3(C2)O[C@@H]2CC[C@@H](c4ccccc4)N2C3=O)cn1 (stereo partly drawn) [Example 8.2, 5-{[(5′S,7a′R)-3′-oxo-5′-phenyltetrahydro-3′H-spiro[cyclobutane-1,2′-pyrrolo[2,1-b][1,3]oxazol]-3-yl]oxy}pyridine-2-carbonitrile]",251
13,"O=C1N2[C@@H](CC[C@H]2c2cnccn2)O[C@]12C[C@H](OCc1ccccc1)C2 [Example 4.1, ((1r),3R,5′S,7a′R)-3-(benzyloxy)-5′-(pyrazin-2-yl)tetrahydro-3′H-spiro[cyclobutane-1,2′-pyrrolo[2,1-b]oxazol]-3′-one]",49
14,"CC1(Oc2cc(C(N)=O)ncn2)CC2(C1)O[C@@H]1CC[C@@H](c3cc(F)cc(F)c3)N1C2=O (stereo partly drawn) [Example 5.2, 6-(((5′S,7a′R)-5′-(3,5-difluorophenyl)-3-methyl-3′-oxotetrahydro-3′H-spiro[cyclobutane-1,2′-pyrrolo[2,1-b]oxazol]-3-yl)oxy)pyrimidine-4-carboxamide]",121
15,"N#Cc1cc(O[C@H]2C[C@@]3(C2)O[C@@H]2CC[C@@H](c4ccccc4)N2C3=O)ncn1 [Example 9.17, 6-{[(1r,3R,5′S,7a′R)-3′-oxo-5′-phenyltetrahydro-3′H-spiro[cyclobutane-1,2′-pyrrolo[2,1-b][1,3]oxazol]-3-yl]oxy}pyrimidine-4-carbonitrile]",18
16,"Cc1cn(-c2cc(OC3CC4(C3)O[C@@H]3CC[C@@H](c5cc(F)cc(F)c5)N3C4=O)ncn2)cn1 (single isomer, unassigned) [Example 9.9]",475
